Source: patent US10758534B2 (Vertex Pharmaceuticals Incorporated, priority 2014, dated 2020)
Read-outs that look alike come from different tables or passages of the source.

Molecular target: T1, F508del (Homo sapiens, UniProt P13569, DEL508-508)
T1 construct: expressed in transfected cells
Experiment: Protocol 2: FRET membrane potential optical assay (VIPR), identification of correction compounds
Format: cell-based
Outline: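 Corrector readout: membrane-potential FRET (CC2-DMPE donor, DiSBAC2(3) acceptor) on VIPR II after Cl⁻-free gluconate bath with 10 μM forskolin and 20 μM genistein. Before this, F508del-expressing NIH3T3 cells were exposed to test compound for 16 h at 37 °C without serum; 27 °C incubation served as temperature-correction control.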

[1] = Table 3, compounds of Table 1 as modulators of CFTR activity, protocol not stated
[2] = F508del CFTR modulator activity, compounds of Table 1, read-out: EC30

T1 sequence (P13569 with tags, fused parts or gaps DEL508-508): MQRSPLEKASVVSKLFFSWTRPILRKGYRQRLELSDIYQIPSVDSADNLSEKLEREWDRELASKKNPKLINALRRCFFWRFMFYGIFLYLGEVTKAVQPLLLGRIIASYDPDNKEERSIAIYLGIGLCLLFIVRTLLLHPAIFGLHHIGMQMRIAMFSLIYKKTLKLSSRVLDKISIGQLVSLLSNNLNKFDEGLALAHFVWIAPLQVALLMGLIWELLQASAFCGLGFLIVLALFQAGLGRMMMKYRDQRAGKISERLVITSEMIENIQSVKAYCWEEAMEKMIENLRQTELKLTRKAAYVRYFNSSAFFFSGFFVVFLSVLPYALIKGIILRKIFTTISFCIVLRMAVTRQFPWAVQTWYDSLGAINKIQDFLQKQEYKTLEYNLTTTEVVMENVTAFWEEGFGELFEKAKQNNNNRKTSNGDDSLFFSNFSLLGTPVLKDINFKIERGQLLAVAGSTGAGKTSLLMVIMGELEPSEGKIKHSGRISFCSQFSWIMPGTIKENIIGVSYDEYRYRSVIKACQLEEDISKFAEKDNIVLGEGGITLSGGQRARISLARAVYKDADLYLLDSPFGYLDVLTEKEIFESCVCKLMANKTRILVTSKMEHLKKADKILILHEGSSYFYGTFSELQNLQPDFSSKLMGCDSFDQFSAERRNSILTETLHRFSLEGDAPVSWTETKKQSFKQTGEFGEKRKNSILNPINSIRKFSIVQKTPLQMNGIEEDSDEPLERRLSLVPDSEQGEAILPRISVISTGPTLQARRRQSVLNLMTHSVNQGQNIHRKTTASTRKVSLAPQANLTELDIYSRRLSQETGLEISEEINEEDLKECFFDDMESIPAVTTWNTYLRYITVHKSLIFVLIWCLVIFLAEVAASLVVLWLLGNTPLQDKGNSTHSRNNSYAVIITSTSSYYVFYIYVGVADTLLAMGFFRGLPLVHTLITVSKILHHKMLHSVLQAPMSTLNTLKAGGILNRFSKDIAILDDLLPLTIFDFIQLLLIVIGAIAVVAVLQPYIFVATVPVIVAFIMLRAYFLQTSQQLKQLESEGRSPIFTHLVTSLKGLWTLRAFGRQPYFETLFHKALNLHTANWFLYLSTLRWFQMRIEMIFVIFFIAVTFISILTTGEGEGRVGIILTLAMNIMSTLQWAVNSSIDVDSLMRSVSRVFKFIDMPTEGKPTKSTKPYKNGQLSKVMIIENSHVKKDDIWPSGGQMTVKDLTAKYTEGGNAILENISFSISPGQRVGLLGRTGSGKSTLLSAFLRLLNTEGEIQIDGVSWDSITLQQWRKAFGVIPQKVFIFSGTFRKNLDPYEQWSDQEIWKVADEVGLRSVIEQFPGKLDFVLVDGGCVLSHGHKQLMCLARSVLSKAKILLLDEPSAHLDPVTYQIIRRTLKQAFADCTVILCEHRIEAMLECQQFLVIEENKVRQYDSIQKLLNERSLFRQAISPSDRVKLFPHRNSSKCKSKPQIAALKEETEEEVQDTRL

SMILES	EC30 [1]	EC30 [2]
CCCC(C)N1CCN(c2cccc(S(=O)(=O)NC(=O)c3cccnc3N3CC(C)CC3(C)C)n2)CC1 (stereo not drawn) [Compound 2226, N—[[6-[4-(1-methylbutyl)piperazin-1-yl]-2-pyridyl]sulfonyl]-2-(2,2,4-trimethylpyrrolidin-1-yl)pyridine-3-carboxamide]	–	3 to 10 µM
CC(C)(C)c1cc(C(=O)NS(=O)(=O)c2cccc(N)c2)n(Cc2c(Cl)cccc2C(F)(F)F)n1 [Compound 189, N-(3-aminophenyl)sulfonyl-5-tert-butyl-2-[[2-chloro-6-(trifluoromethyl)phenyl]methyl]pyrazole-3-carboxamide]	+++ (“+++” means <3 uM)	–
COc1cc(C)cc(OC)c1-c1ccc(C(=O)NS(=O)(=O)c2cccc(N)n2)c(Oc2c(C)cc(C)cc2C)n1 [Compound 629, N-[(6-amino-2-pyridyl)sulfonyl]-6-(2,6-dimethoxy-4-methyl-phenyl)-2-(2,4,6-trimethylphenoxy)pyridine-3-carboxamide]	+++ (“+++” means <3 uM)	–
CCC1(C)CCCN(c2nc(-c3cc(F)cc(OCC(C)C)c3)ccc2C(=O)NS(=O)(=O)c2cccc(N)n2)C1 (stereo not drawn) [Compound 530, N-[(6-amino-2-pyridyl)sulfonyl]-2-(3-ethyl-3-methyl-1-piperidyl)-6-(3-fluoro-5-isobutoxy-phenyl)pyridine-3-carboxamide]	+++ (“+++” means <3 uM)	–
CC(C)COc1cc(F)cc(-c2ccc(C(=O)NS(=O)(=O)c3cccc(N)n3)c(N3[C@H](C)CC[C@H]3C)n2)c1 [Compound 751, N-[(6-amino-2-pyridyl)sulfonyl]-2-[(2R,5R)-2,5-dimethylpyrrolidin-1-yl]-6-(3-fluoro-5-isobutoxy-phenyl)pyridine-3-carboxamide]	+++ (“+++” means <3 uM)	–
CC(C)COc1cc(F)cc(-c2ccc(C(=O)NS(=O)(=O)N[C@@H]3CCCNC3)c(N3C[C@@H](C)CC3(C)C)n2)c1 [Compound 2677, 6-(3-fluoro-5-isobutoxy-phenyl)-N-[[(3R)-3-piperidyl]sulfamoyl]-2-[(4S)-2,2,4-trimethylpyrrolidin-1-yl]pyridine-3-carboxamide]	–	< 3 µM
C[C@@H]1CN(c2nc(-c3cccc(F)c3F)ccc2C(=O)NS(=O)(=O)c2cccnc2N)C(C)(C)C1 [Compound 2291, N-[(2-amino-3-pyridyl)sulfonyl]-6-(2,3-difluorophenyl)-2-[(4S)-2,2,4-trimethylpyrrolidin-1-yl]pyridine-3-carboxamide]	–	< 3 µM

Other lines, results leading:

EC30 [1]	EC30 [2]	SMILES
+++ (“+++” means <3 uM)	–	CC(c1ccccc1)n1c(C(=O)NS(=O)(=O)c2ccccc2)cc2c(F)cccc21 (stereo not drawn) [Compound 160, N-(benzenesulfonyl)-4-fluoro-1-(1-phenylethyl)indole-2-carboxamide]
+++ (“+++” means <3 uM)	–	Cc1cc(C)c(Cn2c(C(=O)NS(=O)(=O)c3cccc(N)c3)cc3cc(Cl)ccc32)c(C)c1 [Compound 344, N-(3-aminophenyl)sulfonyl-5-chloro-1-[(2,4,6-trimethylphenyl)methyl]indole-2-carboxamide]
+++ (“+++” means <3 uM)	–	Cc1cc(C)c(Oc2nc(-c3ccc(C#N)cc3)ccc2C(=O)NS(=O)(=O)c2cccc(N)n2)c(C)c1 [Compound 216, N-[(6-amino-2-pyridyl)sulfonyl]-6-(4-cyanophenyl)-2-(2,4,6-trimethylphenoxy)pyridine-3-carboxamide]
–	< 3 µM	CC(C)c1ccc(-c2ccc(C(=O)NS(=O)(=O)c3ccc[nH]c3=O)c(N3C[C@@H](C)CC3(C)C)n2)cc1 [Compound 2483, 6-(4-isopropylphenyl)-N-[(2-oxo-1H-pyridin-3-yl)sulfonyl]-2-[(4S)-2,2,4-trimethylpyrrolidin-1-yl]pyridine-3-carboxamide]
–	< 3 µM	CCCCN(C)c1cccc(S(=O)(=O)NC(=O)c2cccnc2N2CC(C)CC2(C)C)n1 (stereo not drawn) [Compound 2307, N—[[6-[butyl(methyl)amino]-2-pyridyl]sulfonyl]-2-(2,2,4-trimethylpyrrolidin-1-yl)pyridine-3-carboxamide]
